Data: the NIST ThermoML archive (doi:10.1021/acs.jced.5b01075)
Several values for one entry are separate records, joined by “and”; a condition that tells them apart may be missing. Identical values can stand only once.

Settings: 101.33 kPa, Liquid; for speed of sound: Sing-around technique in a fixed-path interferometer; for mass density: Vibrating tube method

Cc1ccccc1 [toluene]
Settings | mass density | speed of sound [m/s]
293.15 K | 866.816 kg/m3 and 866.8 kg/m3 | 1326.5
303.15 K | 857.497 kg/m3 and 857.5 kg/m3 | 1283.5
313.15 K | 848.114 kg/m3 and 848.1 kg/m3 | 1241
323.15 K | 838.661 kg/m3 and 838.7 kg/m3 | 1198.9
333.15 K | 829.124 kg/m3 and 829.1 kg/m3 | 1157.5
343.15 K | 819.5 kg/m3 | –
353.15 K | 809.7 kg/m3 | –
